Measured values published in patent US20230143775A1, “METHODS OF TREATING CORONAVIRUS INFECTIONS” (EAGLE PHARMACEUTICALS, INC., priority 2020, published 2023).
Converted amounts (≈) assume the structure as drawn.

Columns and labels:
[1] = system: uninfected Vero E6 cells; details: lower dilutions (<50 μM dantrolene), without virus
[2] = system: SARS-CoV-2; experiment: Virus neutralization (VN) assay, scoring SARS-CoV-2 cytopathic effects (CPE) in Vero E6 cells; assay type: cell-based; details: for Day 2 Read (CPE) / Day 4 Read (CPE) / Day 6 Read (CPE): triplicate wells
[3] = 20 μM dantrolene (as […]), […], Vero E6 cells
[4] = 30 μM dantrolene (as […]), […], Vero E6 cells
[5] = 40 μM dantrolene (as […]), […], Vero E6 cells

O=C1CN(/N=C/c2ccc(-c3ccc([N+](=O)[O-])cc3)o2)C(O)=N1 [dantrolene]
cell viability of uninfected Vero E6 cells [1]: good cell viability
Day 2 Read (CPE) [2, 3]: 3/3 wells had No CPE
Day 4 Read (CPE) [2, 3]: 3/3 wells had No CPE
Day 6 Read (CPE) [2, 3]: 3/3 wells had No CPE
Day 2 Read (CPE) [2, 4]: 3/3 wells had No CPE
Day 4 Read (CPE) [2, 4]: 3/3 wells had No CPE
Day 6 Read (CPE) [2, 4]: 3/3 wells had No CPE
Day 2 Read (CPE) [2, 5]: 3/3 wells had No CPE
Day 4 Read (CPE) [2, 5]: 3/3 wells had No CPE
Day 6 Read (CPE) [2, 5]: 3/3 wells had No CPE
Day 6 Read (CPE) ([2]; 100 μM dantrolene (as […]), […], Vero E6 cells): 3/3 wells had >90%
CPE ([2]; 20-40 μM of dantrolene, […]): no CPE was observed
cytopathic effects (indicating virus growth) ([2]; 20 and 40 μM dantrolene, all timepoints): No cytopathic effects
MIC ([2]; Severe acute respiratory syndrome coronavirus 2, no CPE across all time points (Days 2, 4, 6), Vero E6 cells, read-out: minimum inhibitory concentration): 20 µM (≈ 6.29 µg/mL)
anti-viral activity ([2]; lower concentrations of 10 and 5 μM): showed anti-viral activity
